This is an account of results in US8609685B2, “SMAC mimetic compounds as apoptosis inducers” (CISI SCRL, priority 2007, dated 2013).

Where two headings read alike, the source gives them in different places.

Test [1] concerns K562 cells. The experiment in a line: Standalone cytotoxicity, WST-1 colorimetric assay, K562. The test is classed as cell-based. The settings on record: Homo sapiens. The procedure:
(§1) All the cell lines were grown at density of 1×10^5 cells per ml and seeded (100 μl of cell suspension/well) on 96-well microtiter plates with or without escalating doses of SMAC-mimic compounds. Cells were incubated at 37° C. in a 5% CO2 fully humidified atmosphere and examined at 24, 48 and 72 hours for cytotoxicity with the WST-1 colorimetric assay. […] Data are expressed as mean percentage of three replicates normalized to the untreated control.

In test [2] the test system is HL60 cells. The experiment in a line: Combination treatment with cytotoxic agents, WST-1 assay, HL60. Type of test: cell-based. The settings on record: Homo sapiens, HL-60, 72 h; read-out: cell growth/viability, mean percentage normalized to the untreated control.
For test [3], the system named is HL60 cells. The experiment in a line: Standalone cytotoxicity, WST-1 colorimetric assay, HL60. Type of test: cell-based. The settings on record: Homo sapiens, HL-60. As for the experimental part:
as §1

Another test deals with KMS26 cell line. The experiment in a line: Standalone cytotoxicity, WST-1 colorimetric assay, KMS26. The test is classed as cell-based. The settings on record: Homo sapiens, KMS-26. The procedure: as §1
The next test relates to ARH77 cell line. The experiment in a line: Standalone cytotoxicity, WST-1 colorimetric assay, ARH77. Type of test: cell-based. The settings on record: Homo sapiens, ARH-77. The procedure:
as §1, with “HL60 and K562 human cell lines were cultured in RPMI 1640 culture medium supplemented with 10% FBS while the ARH77 and KMS26 cell lines were cultured in IMDM culture medium supplemented with 10% FBS. All” for “All”

A further test has as its system MDA-MB-231 cells. The experiment in a line: Standalone cytotoxicity, MTT assay, MDA-MB-231. The settings on record: Homo sapiens; for IC80: read-out: IC80 (μM ± standard Deviation); for IC50: read-out: IC50 (μM ± standard Deviation). The test is classed as cell-based. As for the experimental part: Reagents for cell culture were purchased from Sigma unless otherwise indicated below. […] A subcultivation ratio of 1:4 was used.
The cellular growth inhibitory effect of our compounds was evaluated using the MTT assay (Sigma). After 96 hours of treatment, 10 μl of MTT reagent solution (5 mg of MTT powder/ml diluted in Phosphate Buffer Salt saline solution) were added in each well and allowed to react for 3 hours in the incubator. After 3 hours cells were solubilized in Lysis Buffer (10% SDS/0.1% HCl in water, 100 μl for each well) for 24 hours at 37° C. Finally, the absorbance was measured at 570 nm using a multiplate reader. Absorbance values were collected and IC50/IC80 values were determined using GraphPad Prism 5 software. The experiments were repeated twice.
MDA-MB-231 cells were seeded in 96-well flat bottom cell culture plates at a density of 5000 cells/well in 100 μl of culture medium and allowed to adhere for 24 hours in the incubator. After 24 hours MDA-MB-231 cells were exposed to the compounds at various concentrations for 96 hours in the incubator (50 nM, 100 nM, 200 nM, 500 nM, 1 μM, 5 μM, 10 μM, 50 μM and 100 μM). Each point was done in triplicate.
After 96 hours of treatment, 10 μl of MTT reagent solution (5 mg of MTT powder/ml diluted in Phosphate Buffer Salt saline solution) were added in each well and allowed to react for 3 hours in the incubator. After 3 hours cells were solubilized in Lysis Buffer (10% SDS/0.1% HCl in water, 100 μl for each well) for 24 hours at 37° C. Finally, the absorbance was measured at 570 nm using a multiplate reader. Absorbance values were collected and IC50/IC80 values were determined using GraphPad Prism 5 software. The experiments were repeated twice.

The subject of test [4] is K562 cells. The experiment in a line: Combination treatment with cytotoxic agents, WST-1 assay, K562. The settings on record: Homo sapiens, K562, 72 h, read-out: cell growth/viability, mean percentage normalized to the untreated control.
A further test addresses T1, human XIAP BIR3 domain (Homo sapiens, UniProt P98170).
T1 construct: human XIAP BIR3 domain from residue 241 to 356; made in house; host or cells: Escherichia coli BL21
The experiment in a line: Fluorescence polarization competitive binding, displacement of FITC-SMAC probe from XIAP BIR3-His-tag. The settings on record: XIAP BIR3, average of three independent measurements. The procedure:
(§2) Data were analyzed using Prism 4.0 software (Graphpad Software).

Test [5] has as its target T2, human XIAP linker-BIR2-BIR3 (Homo sapiens, UniProt P98170).
T2 construct: human XIAP from residue 124 to 356 (linker-BIR2-BIR3); made in house; host or cells: Escherichia coli BL21
The experiment in a line: Fluorescence polarization competitive binding, displacement of SMAC-1F probe from XIAP linker-BIR2-BIR3-His-tag. The settings on record: XIAP linker-BIR2-BIR3, average of three independent measurements. As for the experimental part: as §2

A further test deals with XIAP (Homo sapiens, UniProt P98170). The settings on record: background statement; cited from earlier work.
Sequence of XIAP (P98170 whole entry): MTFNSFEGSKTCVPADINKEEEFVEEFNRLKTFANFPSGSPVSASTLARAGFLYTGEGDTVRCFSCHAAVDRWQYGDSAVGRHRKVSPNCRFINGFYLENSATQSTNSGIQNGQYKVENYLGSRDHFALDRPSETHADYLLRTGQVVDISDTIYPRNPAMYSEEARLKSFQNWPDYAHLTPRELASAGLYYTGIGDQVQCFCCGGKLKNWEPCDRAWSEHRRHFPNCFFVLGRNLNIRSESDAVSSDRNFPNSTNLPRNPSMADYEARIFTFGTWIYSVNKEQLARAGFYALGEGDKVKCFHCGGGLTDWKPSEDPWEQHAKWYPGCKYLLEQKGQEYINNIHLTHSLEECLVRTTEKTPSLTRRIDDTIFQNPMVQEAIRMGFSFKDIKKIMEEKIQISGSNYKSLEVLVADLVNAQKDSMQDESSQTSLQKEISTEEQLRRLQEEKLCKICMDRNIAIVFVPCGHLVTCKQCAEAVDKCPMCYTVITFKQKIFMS

T2 sequence (P98170 124-356): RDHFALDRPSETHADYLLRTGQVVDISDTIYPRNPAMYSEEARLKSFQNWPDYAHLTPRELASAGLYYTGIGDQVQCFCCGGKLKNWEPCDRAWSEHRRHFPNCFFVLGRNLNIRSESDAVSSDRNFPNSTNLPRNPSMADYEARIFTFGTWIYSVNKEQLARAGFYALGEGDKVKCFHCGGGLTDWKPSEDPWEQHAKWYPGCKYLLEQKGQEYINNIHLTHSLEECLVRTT
T1 sequence (P98170 241-356): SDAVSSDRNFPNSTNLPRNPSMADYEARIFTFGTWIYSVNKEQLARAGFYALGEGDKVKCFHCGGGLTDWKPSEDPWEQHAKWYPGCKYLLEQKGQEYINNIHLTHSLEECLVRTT

On to `CC[C@H](N)C(=O)N[C@@H]1C(=O)N2[C@@H](CC[C@@H]1CO)CC[C@H]2C(=O)NC(c1ccccc1)c1ccccc1` [Compound 24a], for which the IC50 was greater than 10 µM in the test on K562 cells [1] (K562, 24 hrs); greater than 10 µM in the test on K562 cells [1] (K562, 48 hrs); greater than 10 µM in the test with K562 cells [1] (K562, 72 hrs); greater than 10 µM with HL60 cells [3] (HL60, 24 hrs); greater than 10000 nM in the test on KMS26 cell line (KMS26, 24 hrs); greater than 10 µM in the test with ARH77 cell line (ARH77, 24 hrs). For the same molecule, the IC50 in the test on ARH77 cell line (ARH77, 48 hrs) was greater than 10 µM; in the test on ARH77 cell line (ARH77, 72 hrs), greater than 10 µM. For the same molecule, in the test with HL60 cells [2], the viability at 0.01 µM stood at 110%. For the same molecule, the IC80 in the test with MDA-MB-231 cells (MDA-MB-231, 96 hours, MTT) came out at 3.9 ± 0.07 µM. In addition, the viability at 0.05 µM in the test on K562 cells [4] stood at 90%.
`CC[C@H](NC)C(=O)N[C@@H]1C(=O)N2[C@@H](CC[C@@H]1CCN)CC[C@H]2C(=O)NC(c1ccccc1)c1ccccc1` [Compound 38d]: the IC50 in the test with MDA-MB-231 cells (MDA-MB-231, 96 h) was found to be 2.3 ± 1.2 µM. Further, in the test on MDA-MB-231 cells (MDA-MB-231, 96 hours, MTT), the IC80 stood at 14.8 ± 1 µM.
In the case of `CC[C@H](N)C(=O)N[C@@H]1C(=O)N2C(CC[C@@H]1CNC(=O)CCC#CC#CCCC(=O)NC[C@H]1CC[C@H]3CC[C@@H](C(=O)NC(c4ccccc4)c4ccccc4)N3C(=O)[C@H]1NC(=O)[C@@H](N)CC)CC[C@H]2C(=O)NC(c1ccccc1)c1ccccc1` (some centres unmarked) [Compound 46a], in the test with MDA-MB-231 cells (MDA-MB-231, 96 hours, MTT), the IC50 was found to be 0.116 ± 0.002 µM and the IC80 was 0.17 ± 0.002 µM.
As to `CC[C@H](N)C(=O)N[C@@H]1C(=O)N2[C@@H](CC[C@@H]1CN=[N+]=[N-])CC[C@H]2C(=O)NC(c1ccccc1)c1ccccc1` [Compound 25a], the IC50 was 4.78 µM in the test with K562 cells [1] (K562, 24 hrs); 3.95 µM in the test on K562 cells [1] (K562, 48 hrs); 2.13 µM in the test on K562 cells [1] (K562, 72 hrs); greater than 10 µM with HL60 cells [3] (HL60, 24 hrs); 3.32 µM in the test with HL60 cells [3] (HL60, 48 hrs); 0.0018 µM in the test on HL60 cells [3] (HL60, 72 hrs).
As for `CC[C@H](N)C(=O)N[C@@H]1C(=O)N2[C@@H](CC[C@@H]1CCN)CC[C@H]2C(=O)NC(c1ccccc1)c1ccccc1` [Compound 38a], the IC50 at human XIAP BIR3 domain is 0.324 µM; in [5], 0.085 µM; in the test with MDA-MB-231 cells (MDA-MB-231, 96 hours, MTT), 12.9 ± 0.3 µM. Also, the IC80 in the test with MDA-MB-231 cells (MDA-MB-231, 96 hours, MTT) came to 33.9 ± 0.7 µM.
Take `CC[C@H](N)C(=O)N[C@@H]1C(=O)N2[C@@H](CC[C@@H]1Cn1cc(CO[C@H](C)[C@H](NC(=O)[C@H](C)NC)C(=O)N3CCC[C@H]3Cn3nnnc3Sc3ccccc3)nn1)CC[C@H]2C(=O)NC(c1ccccc1)c1ccccc1` [Compound 44a]: the IC50 is greater than 10 µM with ARH77 cell line (ARH77, 24 hrs); greater than 10 µM in the test on ARH77 cell line (ARH77, 48 hrs); greater than 10 µM with ARH77 cell line (ARH77, 72 hrs); 0.168 ± 0.002 µM with MDA-MB-231 cells (MDA-MB-231, 96 hours, MTT). For the same molecule, the concentration for an effect of 80% (IC80) in the test with MDA-MB-231 cells (MDA-MB-231, 96 hours, MTT) worked out at 0.288 ± 0.003 µM. Further, the viability at 0.0001 µM in the test with K562 cells [4] is 89%.
`CC[C@H](NC)C(=O)N[C@@H]1C(=O)N2[C@@H](CC[C@@H]1CO)CC[C@H]2C(=O)NC(c1ccccc1)c1ccccc1` [Compound 24g]: the half-maximal inhibitory concentration (IC50) in the test with MDA-MB-231 cells (MDA-MB-231, 96 h) turned out to be 0.237 ± 0.003 µM. For the same molecule, the IC80 in the test on MDA-MB-231 cells (MDA-MB-231, 96 hours, MTT) worked out at 0.87 ± 0.004 µM.
As to `CC(=O)O[C@H]1C(=O)[C@@]2(C)[C@H]([C@H](OC(=O)c3ccccc3)[C@]3(O)C[C@H](OC(=O)[C@H](O)[C@@H](NC(=O)c4ccccc4)c4ccccc4)C(C)=C1C3(C)C)[C@]1(OC(C)=O)CO[C@@H]1C[C@@H]2O` [Taxol, taxol, reference compound], in the test on K562 cells [4], the viability at 0.1 µM worked out at 69%.
As for `CC[C@H](N)C(=O)N[C@@H]1C(=O)N2[C@@H](CC[C@@H]1COC(C)=O)CC[C@H]2C(=O)NC(c1ccccc1)c1ccccc1` [Compound 30a], the IC50 in the test with K562 cells [1] (K562, 24 hrs) was greater than 10 µM; with K562 cells [1] (K562, 48 hrs), greater than 10 µM; with K562 cells [1] (K562, 72 hrs) it was greater than 10 µM; with HL60 cells [3] (HL60, 24 hrs), greater than 10 µM; with HL60 cells [3] (HL60, 48 hrs), 1.79 µM; in the test on HL60 cells [3] (HL60, 72 hrs) it was 0.623 µM.
As to `CC[C@H](N)C(=O)N[C@@H]1C(=O)N2[C@@H](CC[C@@H]1CN)CC[C@H]2C(=O)NC(c1ccccc1)c1ccccc1` [Compound 26a], the IC50 with K562 cells [1] (K562, 24 hrs) is 0.593 µM; in the test with K562 cells [1] (K562, 48 hrs), 6e-05 µM; with K562 cells [1] (K562, 72 hrs) it was 8e-05 µM; in the test on KMS26 cell line (KMS26, 24 hrs), greater than 10000 nM; in the test on KMS26 cell line (KMS26, 48 hrs), 0.002 nM; in the test with KMS26 cell line (KMS26, 72 hrs), 62.3 nM. In addition, the IC50 is greater than 10 µM in the test on ARH77 cell line (ARH77, 24 hrs); greater than 10 µM with ARH77 cell line (ARH77, 48 hrs); greater than 10 µM with ARH77 cell line (ARH77, 72 hrs).

B1: mature Smac protein: mature Smac/DIABLO protein, endogenous inhibitor of XIAP (protein, UniProt Q9NR28 22-239, looked up)
Diablo IAP-binding …: LCVPVVANFKKRCFSELIRPWHKTVTIGFGVTLCAVPIAQKSEPHSLSSEALMRRAVSLVTDSTSTFLSQTTYALIEAITEYTKAVYTLTSLYRQYTSLLGKMNSEEEDEVWQVIIGARAEMTSKHQEYLKLETTWMTAVGLSEMAAEAAYQTGADQASITARNHIQLVKLQVEEVHQLSRKAETKLAEAQIEELRQKTQEEGEERAESEQEAYLRED
As to B1, in the test with XIAP, the Kd was 0.42 µM.
